Key:
ROCK1 = ROCK1 (Homo sapiens (Human), UniProt Q13464); test: Rho-associated coiled-coil kinase (ROCK) assay, ADP-Glo system; format: biochemical; conditions: 0.1 μg ROCK1, 1 μg S6K substrate, 100 μM ATP, 60 min
Procedure: Rho-associated coiled-coil kinase (ROCK) assays were performed with the ADP-Glo system using 0.1 μg ROCK1 and 1 μg S6K substrate, and 100 μM ATP for 60 min prior to addition of ADP-GLO Reagent, and allowed to incubate for an additional 40 min prior to the addition of the Kinase Detection Reagent and imaging on a PHERASTAR system.

GRK2 = GRK2 (Homo sapiens (Human), UniProt P25098); test: GRK2 kinetic assay (phosphorylation of bROS or tubulin, phosphorimaging); format: biochemical; conditions: 50 nM GRK, 5 μM ATP, 5 min reaction
GRK2, sequence (P25098 whole entry, species assumed): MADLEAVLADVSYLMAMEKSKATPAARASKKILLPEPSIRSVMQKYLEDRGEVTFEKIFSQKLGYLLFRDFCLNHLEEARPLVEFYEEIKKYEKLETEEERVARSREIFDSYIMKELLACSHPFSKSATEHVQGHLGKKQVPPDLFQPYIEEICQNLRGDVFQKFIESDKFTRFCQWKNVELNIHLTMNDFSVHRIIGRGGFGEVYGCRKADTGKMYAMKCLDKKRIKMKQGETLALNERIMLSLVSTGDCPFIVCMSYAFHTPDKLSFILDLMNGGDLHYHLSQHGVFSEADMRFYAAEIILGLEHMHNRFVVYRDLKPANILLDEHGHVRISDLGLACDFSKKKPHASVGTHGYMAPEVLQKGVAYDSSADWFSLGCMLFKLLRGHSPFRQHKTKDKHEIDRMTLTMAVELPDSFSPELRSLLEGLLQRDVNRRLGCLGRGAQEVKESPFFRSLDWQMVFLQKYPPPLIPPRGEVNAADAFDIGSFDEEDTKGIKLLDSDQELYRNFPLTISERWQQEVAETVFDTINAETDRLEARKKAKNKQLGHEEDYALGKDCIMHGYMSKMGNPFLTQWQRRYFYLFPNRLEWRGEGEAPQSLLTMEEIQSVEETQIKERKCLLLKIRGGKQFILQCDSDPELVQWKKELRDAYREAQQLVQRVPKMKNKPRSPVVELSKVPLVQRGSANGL
Procedure: The low salt concentration and DDM were used to maximize GRK activity and disrupt small molecule aggregates from forming, respectively. […] Data was analyzed and inhibition curves were fit via GraphPad Prism.

ROCK1, sequence (Q13464 whole entry, species assumed): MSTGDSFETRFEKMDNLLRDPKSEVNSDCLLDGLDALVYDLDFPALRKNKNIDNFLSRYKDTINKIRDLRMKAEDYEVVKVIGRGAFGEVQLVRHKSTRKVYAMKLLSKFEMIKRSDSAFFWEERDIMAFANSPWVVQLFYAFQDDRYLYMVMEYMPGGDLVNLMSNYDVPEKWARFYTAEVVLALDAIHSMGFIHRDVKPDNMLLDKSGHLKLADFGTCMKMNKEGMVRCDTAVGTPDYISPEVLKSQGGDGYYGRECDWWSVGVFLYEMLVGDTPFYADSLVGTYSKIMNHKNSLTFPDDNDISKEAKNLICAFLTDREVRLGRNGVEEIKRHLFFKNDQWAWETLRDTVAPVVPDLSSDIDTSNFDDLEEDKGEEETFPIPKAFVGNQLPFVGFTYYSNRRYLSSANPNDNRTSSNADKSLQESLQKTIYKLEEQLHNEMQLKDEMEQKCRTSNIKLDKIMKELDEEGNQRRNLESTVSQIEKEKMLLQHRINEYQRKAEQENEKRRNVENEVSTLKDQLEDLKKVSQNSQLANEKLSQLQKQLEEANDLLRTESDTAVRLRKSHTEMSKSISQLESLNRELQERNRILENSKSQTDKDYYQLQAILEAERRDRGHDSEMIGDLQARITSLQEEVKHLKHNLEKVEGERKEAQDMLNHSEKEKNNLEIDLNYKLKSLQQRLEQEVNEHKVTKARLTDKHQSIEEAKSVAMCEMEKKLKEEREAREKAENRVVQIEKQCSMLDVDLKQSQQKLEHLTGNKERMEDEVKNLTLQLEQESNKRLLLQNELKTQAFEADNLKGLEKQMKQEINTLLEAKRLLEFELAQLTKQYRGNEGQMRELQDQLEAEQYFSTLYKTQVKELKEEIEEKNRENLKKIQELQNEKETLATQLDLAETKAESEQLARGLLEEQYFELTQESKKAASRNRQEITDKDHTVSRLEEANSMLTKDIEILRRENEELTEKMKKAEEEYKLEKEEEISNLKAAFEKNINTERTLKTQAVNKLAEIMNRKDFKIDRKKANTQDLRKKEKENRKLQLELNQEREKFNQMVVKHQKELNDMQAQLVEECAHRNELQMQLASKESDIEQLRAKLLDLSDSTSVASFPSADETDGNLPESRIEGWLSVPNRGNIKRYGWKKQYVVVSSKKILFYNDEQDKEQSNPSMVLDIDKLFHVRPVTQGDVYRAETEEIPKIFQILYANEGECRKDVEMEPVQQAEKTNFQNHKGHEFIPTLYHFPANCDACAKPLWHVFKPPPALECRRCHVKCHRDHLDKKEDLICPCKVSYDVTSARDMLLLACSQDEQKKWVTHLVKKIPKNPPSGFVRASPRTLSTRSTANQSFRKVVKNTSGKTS

In the case of `CC1=C(C(=O)Nc2ccc3[nH]ncc3c2)C(c2ccc(F)c(C(=O)NCc3ccccn3)c2)NC(=O)N1` (stereo not drawn) [Example E01, 4-(4-fluoro-3-((pyridin-2-ylmethyl)carbamoyl)phenyl)-N-(1H-indazol-5-yl)-6-methyl-2-oxo-1,2,3,4-tetrahydropyrimidine-5-carboxamide], the IC50 (ROCK1) is reported as 0.011 µM.

`CC1=C(C(=O)Nc2ccc3[nH]ncc3c2)C(c2ccc(F)c(C(=O)NCCc3ccccn3)c2)NC(=O)N1` (stereo not drawn) [Example E03, 4-(4-fluoro-3-((2-(pyridin-2-yl)ethyl)carbamoyl)phenyl)-N-(1H-indazol-5-yl)-6-methyl-2-oxo-1,2,3,4-tetrahydropyrimidine-5-carboxamide] showed an IC50 (ROCK1) of 0.023 µM.

`CC1=C(C(=O)Nc2ccc3[nH]ncc3c2)C(c2ccc(F)c(C(=O)NCc3cccc(F)c3)c2)NC(=O)N1` (stereo not drawn) [Example E04, 4-(4-fluoro-3-((3-fluorobenzyl)carbamoyl)phenyl)-N-(1H-indazol-5-yl)-6-methyl-2-oxo-1,2,3,4-tetrahydropyrimidine-5-carboxamide] was tested, and the IC50 (ROCK1) was 0.021 µM.

Compound `COc1ccc(CNC(=O)c2cc(C3NC(=O)NC(C)=C3C(=O)Nc3ccc4[nH]ncc4c3)ccc2F)cc1` (stereo not drawn) [Example E06, 4-(4-fluoro-3-((4-methoxybenzyl)carbamoyl)phenyl)-N-(1H-indazol-5-yl)-6-methyl-2-oxo-1,2,3,4-tetrahydropyrimidine-5-carboxamide] has an IC50 (ROCK1) of 0.05 µM.

Work on `CC1=C(C(=O)Nc2ccc3[nH]ncc3c2)C(c2ccc(F)c(C(=O)NCCc3ccncc3)c2)NC(=O)N1` (stereo not drawn) [Example E07, 4-(4-fluoro-3-((2-(pyridin-4-yl)ethyl)carbamoyl)phenyl)-N-(1H-indazol-5-yl)-6-methyl-2-oxo-1,2,3,4-tetrahydropyrimidine-5-carboxamide] yielded an IC50 (ROCK1) of over 100 µM.

`CC1=C(C(=O)Nc2ccc3[nH]ncc3c2)C(c2ccc(F)c(C(=O)NCc3c(Cl)cccc3Cl)c2)NC(=O)N1` (stereo not drawn) [Example E09, 4-(3-((2,6-dichlorobenzyl)carbamoyl)-4-fluorophenyl)-N-(1H-indazol-5-yl)-6-methyl-2-oxo-1,2,3,4-tetrahydropyrimidine-5-carboxamide] was tested, and the IC50 (ROCK1) was 6.7 µM.

For `CC1=C(C(=O)Nc2ccc3[nH]ncc3c2)C(c2ccc(F)c(C(=O)NCc3c(C)cccc3C)c2)NC(=O)N1` (stereo not drawn) [Example E10, 4-(3-((2,6-dimethylbenzyl)carbamoyl)-4-fluorophenyl)-N-(1H-indazol-5-yl)-6-methyl-2-oxo-1,2,3,4-tetrahydropyrimidine-5 carboxamide], the IC50 (ROCK1) was 5.8 µM.

`COc1cccc(OC)c1CNC(=O)c1cc(C2NC(=O)NC(C)=C2C(=O)Nc2ccc3[nH]ncc3c2)ccc1F` (stereo not drawn) [Example E11, 4-(3-((2,6-dimethoxybenzyl)carbamoyl)-4-fluorophenyl)-N-(1H-indazol-5-yl)-6-methyl-2-oxo-1,2,3,4-tetrahydropyrimidine-5-carboxamide] gave an IC50 (ROCK1) of over 10 µM.

`CNC(=O)c1cc(C2NC(=O)NC(C)=C2C(=O)Nc2ccc3[nH]ncc3c2)ccc1F` (stereo not drawn) [Example E12, 4-(4-fluoro-3-(methylcarbamoyl)phenyl)-N-(1H-indazol-5-yl)-6-methyl-2-oxo-1,2,3,4-tetrahydropyrimidine-5-carboxamide] was tested, and the IC50 (ROCK1) was 0.19 µM.

In the case of `CC1=C(C(=O)Nc2ccc3[nH]ncc3c2)C(c2ccc(F)c(C(=O)NCc3cc(C(F)(F)F)cc(C(F)(F)F)c3)c2)NC(=O)N1` (stereo not drawn) [Example E13, 4-(3-((3,5-bis(trifluoromethyl)benzyl)carbamoyl)-4-fluorophenyl)-N-(1H-indazol-5-yl)-6-methyl-2-oxo-1,2,3,4-tetrahydropyrimidine-5-carboxamide], the IC50 (ROCK1) is reported as 1.9 µM.

`CC1=C(C(=O)Nc2ccc3[nH]ncc3c2)C(c2ccc(F)c(C(=O)NCCc3c(C)cccc3C)c2)NC(=O)N1` (stereo not drawn) [Example E14, 4-(3-((2,6-dimethylphenethyl)carbamoyl)-4-fluorophenyl)-N-(1H-indazol-5-yl)-6-methyl-2-oxo-1,2,3,4-tetrahydropyrimidine-5-carboxamide] was tested, and the IC50 (ROCK1) was 0.29 µM.

`CC1=C(C(=O)Nc2ccc3[nH]ncc3c2)C(c2ccc(F)c(C(=O)NCc3ncccc3C)c2)NC(=O)N1` (stereo not drawn) [Example E15, 4-(4-fluoro-3-(((3-methylpyridin-2-yl)methyl)carbamoyl)phenyl)-N-(1H-indazol-5-yl)-6-methyl-2-oxo-1,2,3,4-tetrahydropyrimidine-5-carboxamide] gave an IC50 (ROCK1) of 0.15 µM.

`CC1=C(C(=O)Nc2ccc3[nH]ncc3c2)C(c2ccc(F)c(C(=O)NCc3ccccc3)c2)NC(=O)N1` (stereo not drawn) [Example E16, 4-(3-(benzylcarbamoyl)-4-fluorophenyl)-N-(1H-indazol-5-yl)-6-methyl-2-oxo-1,2,3,4-tetrahydropyrimidine-5-carboxamide] gave an IC50 (ROCK1) of 0.069 µM.

In the case of `CC1=C(C(=O)Nc2ccc3[nH]ncc3c2)C(c2ccc(F)c(C(=O)NCc3c(C(F)(F)F)cccc3C(F)(F)F)c2)NC(=O)N1` (stereo not drawn) [Example E17, 4-(3-((2,6-bis(trifluoromethyl)benzyl)carbamoyl)-4-fluorophenyl)-N-(1H-indazol-5-yl)-6-methyl-2-oxo-1,2,3,4-tetrahydropyrimidine-5-carboxamide], the IC50 (ROCK1) is reported as over 10 µM.

`COc1cccc(CNC(=O)c2cc(C3NC(=O)NC(C)=C3C(=O)Nc3ccc4[nH]ncc4c3)ccc2F)c1` (stereo not drawn) [Example E18, 4-(4-fluoro-3-((3-methoxybenzyl)carbamoyl)phenyl)-N-(1H-indazol-5-yl)-6-methyl-2-oxo-1,2,3,4-tetrahydropyrimidine-5-carboxamide] showed an IC50 (ROCK1) of 0.097 µM.

Compound `CCC(C)N(C)C(=O)c1cc(C2NC(=O)NC(C)=C2C(=O)Nc2ccc3[nH]ncc3c2)ccc1F` (stereo not drawn) [Example E19, 4-(3-(sec-butyl(methyl)carbamoyl)-4-fluorophenyl)-N-(1H-indazol-5-yl)-6-methyl-2-oxo-1,2,3,4-tetrahydropyrimidine-5-carboxamide] has an IC50 (GRK2) of 51 µM.

`CC1=C(C(=O)Nc2ccc3[nH]ncc3c2)C(c2ccc(F)c(C(=O)NCC(C)N3CCCCCC3)c2)NC(=O)N1` (stereo not drawn) [Example E20, 4-(3-((2-(azepan-1-yl)propyl)carbamoyl)-4-fluorophenyl)-N-(1H-indazol-5-yl)-6-methyl-2-oxo-1,2,3,4-tetrahydropyrimidine-5-carboxamide] gave an IC50 (GRK2) of 0.74 µM.

`CC1=C(C(=O)Nc2ccc3[nH]ncc3c2)C(c2ccc(F)c(C(=O)N(C)CC3CCCCO3)c2)NC(=O)N1` (stereo not drawn) [Example E21, 4-(4-fluoro-3-(methyl((tetrahydro-2H-pyran-2-yl)methyl)carbamoyl)phenyl)-N-(1H-indazol-5-yl)-6-methyl-2-oxo-1,2,3,4-tetrahydropyrimidine-5-carboxamide] gave an IC50 (GRK2) of 14.6 µM.

`COC(=O)C1(NC(=O)c2cc(C3NC(=O)NC(C)=C3C(=O)Nc3ccc4[nH]ncc4c3)ccc2F)CCCCC1` (stereo not drawn) [Example E23, methyl 1-(5-(5-((1H-indazol-5-yl)carbamoyl)-6-methyl-2-oxo-1,2,3,4-tetrahydropyrimidin-4-yl)-2-fluorobenzamido)cyclohexanecarboxylate] was tested, and the IC50 (GRK2) was 0.82 µM.

`COCc1noc(CNC(=O)c2cc(C3NC(=O)NC(C)=C3C(=O)Nc3ccc4[nH]ncc4c3)ccc2F)n1` (stereo not drawn) [Example E24, 4-(4-fluoro-3-(((3-(methoxymethyl)-1,2,4-oxadiazol-5-yl)methyl)carbamoyl)phenyl)-N-(1H-indazol-5-yl)-6-methyl-2-oxo-1,2,3,4-tetrahydropyrimidine-5-carboxamide] showed an IC50 (GRK2) of 0.24 µM.

Compound `CC1=C(C(=O)Nc2ccc3[nH]ncc3c2)C(c2ccc(F)c(C(=O)NC3CC4CCC3(C)C4(C)C)c2)NC(=O)N1` (stereo not drawn) [Example E25, 4-(4-fluoro-3-((1,7,7-trimethylbicyclo[2.2.1]heptan-2-yl)carbamoyl)phenyl)-N-(1H-indazol-5-yl)-6-methyl-2-oxo-1,2,3,4-tetrahydropyrimidine-5-carboxamide] has an IC50 (GRK2) of 5.2 µM.

For `CC1=C(C(=O)Nc2ccc3[nH]ncc3c2)C(c2ccc(F)c(C(=O)N(C)Cc3cc(C)[nH]n3)c2)NC(=O)N1` (stereo not drawn) [Example E26, 4-(4-fluoro-3-(methyl((5-methyl-1H-pyrazol-3-yl)methyl)carbamoyl)phenyl)-N-(1H-indazol-5-yl)-6-methyl-2-oxo-1,2,3,4-tetrahydropyrimidine-5-carboxamide], the IC50 (GRK2) was 1.2 µM.

For `COc1ccccc1C(C)NC(=O)c1cc(C2NC(=O)NC(C)=C2C(=O)Nc2ccc3[nH]ncc3c2)ccc1F` (stereo not drawn) [Example E27, 4-(4-fluoro-3-((1-(2-methoxyphenyl)ethyl)carbamoyl)phenyl)-N-(1H-indazol-5-yl)-6-methyl-2-oxo-1,2,3,4-tetrahydropyrimidine-5-carboxamide], the IC50 (GRK2) was 0.32 µM.

Work on `CC1=C(C(=O)Nc2ccc3[nH]ncc3c2)C(c2ccc(F)c(CC(=O)NCc3c(C)cccc3C)c2)NC(=O)N1` (stereo not drawn) [Example E28, 4-(3-(2-((2,6-dimethylbenzyl)amino)-2-oxoethyl)-4-fluorophenyl)-N-(1H-indazol-5-yl)-6-methyl-2-oxo-1,2,3,4-tetrahydropyrimidine-5-carboxamide] yielded an IC50 (ROCK1) of 0.45 µM.

`CC1=C(C(=O)Nc2ccc3[nH]ncc3c2)C(c2ccc(F)c(CC(=O)NCc3c(C(F)(F)F)cccc3C(F)(F)F)c2)NC(=O)N1` (stereo not drawn) [Example E29, 4-(3-(2-((2,6-bis(trifluoromethyl)benzyl)amino)-2-oxoethyl)-4-fluorophenyl)-N-(1H-indazol-5-yl)-6-methyl-2-oxo-1,2,3,4-tetrahydropyrimidine-5-carboxamide] showed an IC50 (ROCK1) of 0.4 µM.

With `COc1cccc(OC)c1CNC(=O)Cc1cc(C2NC(=O)NC(C)=C2C(=O)Nc2ccc3[nH]ncc3c2)ccc1F` (stereo not drawn) [Example E30, 4-(3-(2-((2,6-dimethoxybenzyl)amino)-2-oxoethyl)-4-fluorophenyl)-N-(1H-indazol-5-yl)-6-methyl-2-oxo-1,2,3,4-tetrahydropyrimidine-5-carboxamide] the IC50 (ROCK1) was 0.2 µM.

`CC1=C(C(=O)Nc2ccc3[nH]ncc3c2)C(c2ccc(F)cc2)NC(=O)N1` (stereo not drawn) [GSK180736A, reference compound] showed an IC50 (ROCK1) of 0.078 µM.

Source: patent publication US10023564B2, “G protein-coupled receptor kinase 2 inhibitors and methods for use of the same” (THE REGENTS OF THE UNIVERSITY OF MICHIGAN, priority 2014, dated 2018)
